Growth inhibition rate, efficacy and inhibition data for nine compounds are collected here from patent US9187491B2, “Gambogenic acid derivatives, preparation method and application thereof” (Ninth People's Hospital, School Medicine Shanghai Jiao Tong …, priority 2012, dated 2015).

In experiment [1] the test system is Human oral squamous cells carcinoma Cal27. Briefly: growth inhibition of tumor cell Cal27 (SRB staining). To be noted: for growth inhibition rate / inhibition at 100 µM / inhibition at 10 µM / inhibition at 1 µM / inhibition at 0.1 µM / inhibition at 0.01 µM: 72 hours, SRB; for efficacy: Cal27, assessment of results; for inhibition at 100 µM / inhibition at 10 µM / inhibition at 1 µM / inhibition at 0.1 µM / inhibition at 0.01 µM: Homo sapiens, CAL-27, read-out: growth inhibition rate. The class given is cell-based. From the text: (§1) The compounds synthesized from the present invention were studied by sulforhodamine B protein staining (sulfothodalnine B, SRB) and miceroculture tetrazolinetetrozohuln (MTT) colorimetric method respectively for in vitro anti-tumor activity (Cancer Res., 1988, 48 (3): 589).
(§2) The concentration gradient of the test compounds of the present invention is 10^−4M, 10^−5M, 10^−6M, 10^−7M, 10^−8M, and the test compounds are 6-methoxy methyl ester gambogenic acid, ethyl ester gambogenic acid, 6-ethoxy ethyl ester gambogenic acid, 6-acyl gambogenic acid, piperidine gambogenic acid, diethylamide gambogenic acyl, morpholine gambogenic acid, and 12-hydroxy gambogenic acid, and 8,9-epoxy gambogenic acid. The test compounds and positive control gambogenic acid were diluted with dimethyl sulfoxide. Inhibition rate(%)=[(control group OD value−administered group OD value)/control group OD value]×100%
Human oral squamous cells carcinoma Cal27 were cultured in DMEM containing 10% fetal bovine serum (FBS), the cells with long-growth phase were forming suspension and culturing in 96-well plates. 10 μl test compounds of different concentrations as experimental group were added into each well of the 96-well plates. Blank control group received an equal volume containing the highest concentration of solvent (ie, 10^−4M dimethyl sulfoxide) in DMEM. After incubation at 37° C. under 5% carbon dioxide conditions for 72 hours, the cells were fixed with trichloroacetic acid, and each well was added with 100 μl SRB solution, unbound SRB was washed away, and then OD values were measured at 550 nm by an automatic plate reader spectrophotometer. A tumor cell group without drugs is a blank control group.

Experiment [2] deals with Human breast cancer cells MCF-7. In words: growth inhibition of tumor cell MCF-7 (MTT colorimetric method). The class given is cell-based. To be noted: for growth inhibition rate / inhibition at 100 µM / inhibition at 10 µM / inhibition at 1 µM / inhibition at 0.1 µM / inhibition at 0.01 µM: 72 hours, MTT; for efficacy: MCF-7, assessment of results; for inhibition at 100 µM / inhibition at 10 µM / inhibition at 1 µM / inhibition at 0.1 µM / inhibition at 0.01 µM: Homo sapiens, MCF7, read-out: growth inhibition rate.
Source text: as §1, §2
Human breast cancer cells MCF-7 were cultured in DMEM containing 10% FBS, the cell with long-growth phase was formed into suspension and cultured in 96-well plates. The test compounds as experimental group with different concentrations were added into each well of the 96-well plates. Blank control group received an equal volume containing the highest concentration of solvent (ie, 10^−4M dimethyl sulfoxide) in DMEM. After incubation at 37° C. under 5% carbon dioxide conditions for 72 hours, each well was added with MTT to 1 mg/ml final concentration for incubation for 4 hours. The supernatant solution in each well was aspirated and added with 200 μl DMSO to dissolve crystals, and then OD values were measured at 490 nm by an automatic plate reader spectrophotometer. A tumor cell group without drugs is a blank control group.
On the technique in general: Tetrazolium dyes change colour on reduction, which living cells bring about.

As to 6-acyl gambogenic acid, the growth inhibition rate came to 100% in experiment [1] (Cal27, 10^−4M); 100% in experiment [1] (Cal27, 10^−5M); 96% in experiment [1] (Cal27, 10^−6M); 0% in experiment [1] (Cal27, 10^−7M); 0% in experiment [1] (Cal27, 10^−8M); 100% in experiment [2] (MCF-7, 10^−4M). The growth inhibition rate in experiment [2] (MCF-7, 10^−5M) was 100%; in experiment [2] (MCF-7, 10^−6M), 83%; in experiment [2] (MCF-7, 10^−7M), 0%; in experiment [2] (MCF-7, 10^−8M), 0%. For the same compound, the efficacy result in experiment [1] and in experiment [2] was “potent (Potent: 10^−6M inhibition rate≧75% or 10^−7M inhibition rate>50%)” throughout.
In the case of `CCOC(=O)/C(C)=C\CC12OC(C)(C)C3CC(C=C4C(=O)c5c(OCC)c(C/C=C(\C)CCC=C(C)C)c(O)c(CC=C(C)C)c5OC431)C2=O` (stereo not drawn) [6-ethoxy ethyl ester gambogenic acid, 6-ethoxyl gambogenic acid ethyl ester], the growth inhibition rate in experiment [1] (Cal27, 10^−4M) stood at 100%; in experiment [1] (Cal27, 10^−5M) it was 100%; in experiment [1] (Cal27, 10^−6M) it was 94%; in experiment [1] (Cal27, 10^−7M), 0%; in experiment [1] (Cal27, 10^−8M), 0%; in experiment [2] (MCF-7, 10^−4M) it was 100%. The growth inhibition rate in experiment [2] (MCF-7, 10^−5M) was 100%; in experiment [2] (MCF-7, 10^−6M) it was 86%; in experiment [2] (MCF-7, 10^−7M), 0%; in experiment [2] (MCF-7, 10^−8M), 0%. The efficacy entry in experiment [1] and in experiment [2] was “potent (Potent: 10^−6M inhibition rate≧75% or 10^−7M inhibition rate>50%)” throughout.
Turning to `COC(=O)/C(C)=C\CC12OC(C)(C)C3CC(C=C4C(=O)c5c(OC)c(C/C=C(\C)CCC=C(C)C)c(O)c(CC=C(C)C)c5OC431)C2=O` (stereo not drawn) [6-methoxy methyl ester gambogenic acid], the growth inhibition rate in experiment [1] (Cal27, 10^−4M) was 100%; in experiment [1] (Cal27, 10^−5M) it was 100%; in experiment [1] (Cal27, 10^−6M), 100%; in experiment [1] (Cal27, 10^−7M), 0%; in experiment [1] (Cal27, 10^−8M), 0%; in experiment [2] (MCF-7, 10^−4M) it was 100%. For the same compound, the growth inhibition rate in experiment [2] (MCF-7, 10^−5M) worked out at 100%; in experiment [2] (MCF-7, 10^−6M), 80%; in experiment [2] (MCF-7, 10^−7M), 0%; in experiment [2] (MCF-7, 10^−8M), 0%. Also, the efficacy result in experiment [1] and in experiment [2] was “potent (Potent: 10^−6M inhibition rate≧75% or 10^−7M inhibition rate>50%)” throughout.
Turning to `CC(C)=CCC/C(C)=C/Cc1c(O)c(CC=C(C)C)c2c(c1O)C(=O)C13OC1C1CC4C(C)(C)OC(C/C=C(\C)C(=O)O)(CC1=O)C43O2` (stereo not drawn) [8,9-epoxy gambogenic acid], the efficacy entry in experiment [1] and in experiment [2] was “potent (Potent: 10^−6M inhibition rate≧75% or 10^−7M inhibition rate>50%)” throughout. Besides, the inhibition at 100 µM in experiment [1] (Cal27, 10^−4M) is 100%; in experiment [2] (MCF-7, 10^−4M), 100%. Also, the inhibition at 10 µM turned out to be 100% in experiment [1] (Cal27, 10^−5M) and 100% in experiment [2] (MCF-7, 10^−5M). Also, the inhibition at 1 µM is 100% in experiment [1] (Cal27, 10^−6M) and 80% in experiment [2] (MCF-7, 10^−6M). The inhibition at 0.1 µM was determined as 0% in experiment [1] (Cal27, 10^−7M) and 0% in experiment [2] (MCF-7, 10^−7M). The inhibition at 0.01 µM in experiment [1] (Cal27, 10^−8M) amounted to 0%; in experiment [2] (MCF-7, 10^−8M), 0%.
`CC(C)=CCC/C(C)=C/Cc1c(O)c(CC=C(C)C)c2c(c1O)C(=O)C1=CC3CC4C(C)(C)OC(C/C=C(\C)C(=O)O)(CC3O)C14O2` (stereo not drawn) [12-hydroxy gambogenic acid]: the efficacy entry in experiment [1] and in experiment [2] was “potent (Potent: 10^−6M inhibition rate≧75% or 10^−7M inhibition rate>50%)” throughout. Also, the inhibition at 100 µM stood at 100% in experiment [1] (Cal27, 10^−4M) and 100% in experiment [2] (MCF-7, 10^−4M). Moreover, the inhibition at 10 µM in experiment [1] (Cal27, 10^−5M) worked out at 100%; in experiment [2] (MCF-7, 10^−5M) it was 100%. The inhibition at 1 µM was determined as 100% in experiment [1] (Cal27, 10^−6M) and 82% in experiment [2] (MCF-7, 10^−6M). Also, the inhibition at 0.1 µM in experiment [1] (Cal27, 10^−7M) turned out to be 0%; in experiment [2] (MCF-7, 10^−7M), 0%. The inhibition at 0.01 µM in experiment [1] (Cal27, 10^−8M) was found to be 0%; in experiment [2] (MCF-7, 10^−8M), 0%.
As for `CCN(CC)C(=O)/C(C)=C\CC12OC(C)(C)C3CC(C=C4C(=O)c5c(O)c(C/C=C(\C)CCC=C(C)C)c(O)c(CC=C(C)C)c5OC431)C2=O` (stereo not drawn) [diethylamide gambogenic acyl], the growth inhibition rate in experiment [1] (Cal27, 10^−4M) amounted to 100%; in experiment [1] (Cal27, 10^−5M), 100%; in experiment [1] (Cal27, 10^−6M), 100%; in experiment [1] (Cal27, 10^−7M) it was 23%; in experiment [1] (Cal27, 10^−8M) it was 0%; in experiment [2] (MCF-7, 10^−4M), 100%. The growth inhibition rate is on record as 100% in experiment [2] (MCF-7, 10^−5M); 84% in experiment [2] (MCF-7, 10^−6M); 0% in experiment [2] (MCF-7, 10^−7M); 0% in experiment [2] (MCF-7, 10^−8M). For the same compound, the efficacy result in experiment [1] and in experiment [2] was “potent (Potent: 10^−6M inhibition rate≧75% or 10^−7M inhibition rate>50%)” in each case.
Regarding `CCOC(=O)/C(C)=C\CC12OC(C)(C)C3CC(C=C4C(=O)c5c(O)c(C/C=C(\C)CCC=C(C)C)c(O)c(CC=C(C)C)c5OC431)C2=O` (stereo not drawn) [ethyl ester gambogenic acid], the growth inhibition rate in experiment [1] (Cal27, 10^−4M) came out at 100%; in experiment [1] (Cal27, 10^−5M), 100%; in experiment [1] (Cal27, 10^−6M) it was 98%; in experiment [1] (Cal27, 10^−7M), 0%; in experiment [1] (Cal27, 10^−8M) it was 0%; in experiment [2] (MCF-7, 10^−4M) it was 100%. The growth inhibition rate in experiment [2] (MCF-7, 10^−5M) was found to be 100%; in experiment [2] (MCF-7, 10^−6M), 96%; in experiment [2] (MCF-7, 10^−7M) it was 0%; in experiment [2] (MCF-7, 10^−8M) it was 0%. The efficacy result in experiment [1] and in experiment [2] was “potent (Potent: 10^−6M inhibition rate≧75% or 10^−7M inhibition rate>50%)” in each case.
Take `CC(C)=CCC/C(C)=C/Cc1c(O)c(CC=C(C)C)c2c(c1O)C(=O)C1=CC3CC4C(C)(C)OC(C/C=C(/C)C(=O)N5CCOCC5)(C3=O)C14O2` (stereo not drawn) [morpholine gambogenic acid]: the growth inhibition rate in experiment [1] (Cal27, 10^−4M) was 100%; in experiment [1] (Cal27, 10^−5M) it was 100%; in experiment [1] (Cal27, 10^−6M), 100%; in experiment [1] (Cal27, 10^−7M) it was 14%; in experiment [1] (Cal27, 10^−8M), 0%; in experiment [2] (MCF-7, 10^−4M), 100%. For the same compound, the growth inhibition rate in experiment [2] (MCF-7, 10^−5M) was found to be 100%; in experiment [2] (MCF-7, 10^−6M), 78%; in experiment [2] (MCF-7, 10^−7M), 14%; in experiment [2] (MCF-7, 10^−8M) it was 0%. Besides, the efficacy result in experiment [1] and in experiment [2] was “potent (Potent: 10^−6M inhibition rate≧75% or 10^−7M inhibition rate>50%)” throughout.
As to `CC(C)=CCC/C(C)=C/Cc1c(O)c(CC=C(C)C)c2c(c1O)C(=O)C1=CC3CC4C(C)(C)OC(C/C=C(/C)C(=O)N5CCCCC5)(C3=O)C14O2` (stereo not drawn) [piperidine gambogenic acid], the growth inhibition rate in experiment [1] (Cal27, 10^−4M) amounted to 100%; in experiment [1] (Cal27, 10^−5M), 100%; in experiment [1] (Cal27, 10^−6M), 70%; in experiment [1] (Cal27, 10^−7M), 0%; in experiment [1] (Cal27, 10^−8M), 0%; in experiment [2] (MCF-7, 10^−4M), 100%. In addition, the growth inhibition rate in experiment [2] (MCF-7, 10^−5M) worked out at 100%; in experiment [2] (MCF-7, 10^−6M), 67%; in experiment [2] (MCF-7, 10^−7M), 0%; in experiment [2] (MCF-7, 10^−8M) it was 0%. Moreover, the efficacy result in experiment [1] and in experiment [2] was “invalid (Invalid: 10^−5M inhibition rate<85%)” throughout.

In general, inhibition refers to the share of the control response that was lost under treatment.
